Measured values published in ChEMBL document CHEMBL4311942, “Design of Trp-Rich Dodecapeptides with Broad-Spectrum Antimicrobial Potency and Membrane-Disruptive Mechanism” (J Med Chem, 2019).
Converted amounts (≈) assume the structure as drawn. Where a SMILES comes first, the peptide text is derived from it.

What was measured:
Staphylococcus aureus [1] = test: Antibacterial activity against Staphylococcus aureus ATCC 29213 in presence of H202 by broth microdilution method; assay type: functional
Escherichia coli [2] = test: Antibacterial activity against Escherichia coli ATCC 25922 incubated for 2 hrs in presence of sodium phosphate buffer at pH 12 by broth microdilution method; assay type: functional; conditions: ATCC 25922, 2 h
Escherichia coli [3] = test: Antibacterial activity against Escherichia coli ATCC 25922 in presence of NaCl by broth microdilution method; assay type: functional
Staphylococcus aureus [4] = test: Antibacterial activity against Staphylococcus aureus ATCC 25923 incubated for 18 to 24 hrs by broth microdilution method; assay type: functional
Escherichia coli [5] = test: Antibacterial activity against Escherichia coli ATCC 25922 incubated for 2 hrs in presence of sodium phosphate buffer at pH 2 by broth microdilution method; assay type: functional; conditions: ATCC 25922, 2 h
Escherichia coli [6] = test: Antibacterial activity against Escherichia coli ATCC 25922 in presence of NH4Cl by broth microdilution method; assay type: functional
Staphylococcus aureus [7] = test: Antibacterial activity against Staphylococcus aureus ATCC 29213 in presence of NH4Cl by broth microdilution method; assay type: functional
[8] = (§1) Cytotoxicity against mouse RAW264.7 cells assessed as cell survival at <= 32 uM after 24 hrs by MTT assay relative to control; assay type: cell-based; conditions: RAW264.7 cells, up to 32 µM, read-out: Activity
Staphylococcus aureus [9] = test: Antibacterial activity against Staphylococcus aureus ATCC 29213 in presence of KCl by broth microdilution method; assay type: functional
Staphylococcus aureus [10] = test: Antibacterial activity against Staphylococcus aureus ATCC 29213 in presence of ZnCl2 by broth microdilution method; assay type: functional
Staphylococcus aureus [11] = test: Antibacterial activity against Staphylococcus aureus ATCC 29213 in presence of NaBH4 by broth microdilution method; assay type: functional
Escherichia coli [12] = test: Antibacterial activity against Escherichia coli ATCC 25922 in presence of 50% serum by broth microdilution method; assay type: functional
[13] = system: Staphylococcus epidermidis; test: Antibacterial activity against Staphylococcus epidermidis ATCC 12228 incubated for 18 to 24 hrs by broth microdilution method; assay type: functional
Staphylococcus aureus [14] = test: Antibacterial activity against Staphylococcus aureus ATCC 29213 in presence of NaCl by broth microdilution method; assay type: functional
Staphylococcus aureus [15] = test: Antibacterial activity against Staphylococcus aureus ATCC 29213 in presence of 12.5% serum by broth microdilution method; assay type: functional
[16] = Therapeutic index, ratio of MHC for human RBC to geometric mean of peptide MIC for Escherichia coli ATCC 25922; assay type: toxicity; conditions: pooled result: one value given for 6 cell lines, strains, targets or settings, read-out: TI
Escherichia coli [17] = test: Antibacterial activity against Escherichia coli ATCC 25922 in presence of FeCl3 by broth microdilution method; assay type: functional
Staphylococcus aureus [18] = test: Antibacterial activity against Staphylococcus aureus ATCC 29213 in presence of CaCl2 by broth microdilution method; assay type: functional
Escherichia coli [19] = test: Antibacterial activity against Escherichia coli ATCC 25922 in presence of MgCl2 by broth microdilution method; assay type: functional
Staphylococcus aureus [20] = test: Antibacterial activity against Staphylococcus aureus ATCC 29213 in presence of MgCl2 by broth microdilution method; assay type: functional
Escherichia coli [21] = test: Antibacterial activity against Escherichia coli ATCC 25922 in presence of CaCl2 by broth microdilution method; assay type: functional
Escherichia coli [22] = test: Antibacterial activity against Escherichia coli ATCC 25922 in presence of KCl by broth microdilution method; assay type: functional
Staphylococcus aureus [23] = test: Antibacterial activity against Staphylococcus aureus ATCC 29213 incubated for 2 hrs in presence of sodium phosphate buffer at pH 4 by broth microdilution method; assay type: functional; conditions: ATCC 29213, 2 h
Escherichia coli [24] = test: Antibacterial activity against Escherichia coli ATCC 25922 in presence of 25% serum by broth microdilution method; assay type: functional
Escherichia coli [25] = test: Antibacterial activity against Escherichia coli UB1005 incubated for 18 to 24 hrs by broth microdilution method; assay type: functional
Staphylococcus aureus [26] = test: Antibacterial activity against Staphylococcus aureus ATCC 29213 using preheated compound at 100 degreeC for 1 hr by broth microdilution method; assay type: functional; conditions: ATCC 29213, 1 h
Escherichia coli [27] = test: Antibacterial activity against Escherichia coli ATCC 25922 in presence of 12.5% serum by broth microdilution method; assay type: functional
Staphylococcus aureus [28] = test: Antibacterial activity against Staphylococcus aureus ATCC 29213 incubated for 18 to 24 hrs by broth microdilution method; assay type: functional
Staphylococcus aureus [29] = test: Antibacterial activity against Staphylococcus aureus ATCC 29213 incubated for 2 hrs in presence of sodium phosphate buffer at pH 10 by broth microdilution method; assay type: functional; conditions: ATCC 29213, 2 h
Staphylococcus aureus [30] = test: Antibacterial activity against Staphylococcus aureus ATCC 29213 in presence of 25% serum by broth microdilution method; assay type: functional
Staphylococcus aureus [31] = test: Antibacterial activity against Staphylococcus aureus ATCC 29213 in presence of FeCl3 by broth microdilution method; assay type: functional
Staphylococcus aureus [32] = test: Antibacterial activity against Staphylococcus aureus ATCC 29213 incubated for 2 hrs in presence of sodium phosphate buffer at pH 2 by broth microdilution method; assay type: functional; conditions: ATCC 29213, 2 h
Escherichia coli [33] = test: Antibacterial activity against Escherichia coli ATCC 25922 in presence of ZnCl2 by broth microdilution method; assay type: functional
Staphylococcus aureus [34] = test: Antibacterial activity against Staphylococcus aureus ATCC 29213 incubated for 2 hrs in presence of sodium phosphate buffer at pH 12 by broth microdilution method; assay type: functional; conditions: ATCC 29213, 2 h
Salmonella typhimurium = test: Antibacterial activity against Salmonella enterica serovar typhimurium C77-31 incubated for 18 to 24 hrs by broth microdilution method; assay type: functional, Salmonella enterica subsp. enterica serovar Typhimurium
Escherichia coli [35] = test: Antibacterial activity against Escherichia coli ATCC 25922 using preheated compound at 100 degreeC for 1 hr by broth microdilution method; assay type: functional; conditions: ATCC 25922, 1 h
Staphylococcus aureus [36] = test: Antibacterial activity against Staphylococcus aureus ATCC 29213 in presence of 50% serum by broth microdilution method; assay type: functional
Escherichia coli [37] = test: Antibacterial activity against Escherichia coli ATCC 25922 in presence of H202 by broth microdilution method; assay type: functional
Erythrocyte = test: Haemolytic activity in human erythrocytes assessed as lowest concentration causing 5% hemolysis after 1 hr; assay type: ADME, cell-based
Escherichia coli [38] = test: Antibacterial activity against Escherichia coli ATCC 25922 in presence of NaBH4 by broth microdilution method; assay type: functional
Escherichia coli [39] = test: Antibacterial activity against Escherichia coli ATCC 25922 incubated for 18 to 24 hrs by broth microdilution method; assay type: functional
Escherichia coli [40] = test: Antibacterial activity against Escherichia coli ATCC 25922 incubated for 2 hrs in presence of sodium phosphate buffer at pH 10 by broth microdilution method; assay type: functional; conditions: ATCC 25922, 2 h
Escherichia coli [41] = test: Antibacterial activity against Escherichia coli ATCC 25922 incubated for 2 hrs in presence of sodium phosphate buffer at pH 4 by broth microdilution method; assay type: functional; conditions: ATCC 25922, 2 h
RAW264.7 = test: as §1; assay type: cell-based; conditions: raw264.7, 24 h

CC(C)C[C@H](NC(=O)[C@H](CCCNC(=N)N)NC(=O)[C@H](CCCCN)NC(=O)[C@H](CCCNC(=N)N)NC(=O)[C@@H](NC(=O)[C@H](CCCCN)NC(=O)[C@H](CCCCN)NC(=O)[C@H](CCCNC(=N)N)NC(=O)[C@H](CC(C)C)NC(=O)[C@H](CCCNC(=N)N)NC(=O)[C@@H](N)CCCNC(=N)N)[C@@H](C)O)C(=O)N[C@@H](CCCCN)C(N)=O (H-RRLRKKTRKRLK-NH2)
MIC (Staphylococcus aureus [1]): > 128 µM
MIC (Escherichia coli [2]): > 128 µM
MIC (Escherichia coli [3]): > 128 µM
MIC (Staphylococcus aureus [4]): > 128 µM
MIC (Escherichia coli [5]): > 128 µM
MIC (Escherichia coli [6]): > 128 µM
MIC (Staphylococcus aureus [7]): > 128 µM
viability at 24 h [8]: ≥ 70%
MIC (Staphylococcus aureus [9]): > 128 µM
MIC (Staphylococcus aureus [10]): > 128 µM
MIC (Staphylococcus aureus [11]): > 128 µM
MIC (Escherichia coli [12]): > 128 µM
MIC [13]: > 128 µM
MIC (Staphylococcus aureus [14]): > 128 µM
MIC (Staphylococcus aureus [15]): > 128 µM
selectivity ratio [16]: 1.26
MIC (Escherichia coli [17]): > 128 µM
MIC (Staphylococcus aureus [18]): > 128 µM
MIC (Escherichia coli [19]): > 128 µM
MIC (Staphylococcus aureus [20]): > 128 µM
MIC (Escherichia coli [21]): > 128 µM
MIC (Escherichia coli [22]): > 128 µM
MIC (Staphylococcus aureus [23]): > 128 µM
MIC (Escherichia coli [24]): > 128 µM
MIC (Escherichia coli [25]): 64 µM (≈ 105 µg/mL)
MIC (Staphylococcus aureus [26]): > 128 µM
MIC (Escherichia coli [27]): > 128 µM
MIC (Staphylococcus aureus [28]): > 128 µM
MIC (Staphylococcus aureus [29]): > 128 µM
MIC (Staphylococcus aureus [30]): > 128 µM
MIC (Staphylococcus aureus [31]): > 128 µM
MIC (Staphylococcus aureus [32]): > 128 µM
MIC (Escherichia coli [33]): > 128 µM
MIC (Staphylococcus aureus [34]): > 128 µM
MIC (Salmonella typhimurium): > 128 µM
MIC (Escherichia coli [35]): > 128 µM
MIC (Staphylococcus aureus [36]): > 128 µM
MIC (Escherichia coli [37]): > 128 µM
MHC (Erythrocyte): > 128 µM
MIC (Escherichia coli [38]): > 128 µM
MIC (Escherichia coli [39]): > 128 µM
MIC (Escherichia coli [40]): > 128 µM
MIC (Escherichia coli [41]): > 128 µM

CC(C)C[C@H](NC(=O)[C@H](Cc1c[nH]c2ccccc12)NC(=O)[C@H](CCCCN)NC(=O)[C@H](CCCNC(=N)N)NC(=O)[C@@H](NC(=O)[C@H](Cc1c[nH]c2ccccc12)NC(=O)[C@H](CCCCN)NC(=O)[C@H](CCCNC(=N)N)NC(=O)[C@H](CC(C)C)NC(=O)[C@H](Cc1c[nH]c2ccccc12)NC(=O)[C@@H](N)CCCNC(=N)N)[C@@H](C)O)C(=O)N[C@@H](CCCCN)C(N)=O (H-RWLRKWTRKWLK-NH2)
MIC (Staphylococcus aureus [4]): 16 µM (≈ 28.1 µg/mL)
Activity (RAW264.7): Non-Toxic
MIC [13]: 8 µM (≈ 14 µg/mL)
selectivity ratio [16]: 32
MIC (Escherichia coli [25]): 4 µM (≈ 7.02 µg/mL)
MIC (Staphylococcus aureus [28]): 8 µM (≈ 14 µg/mL)
MIC (Salmonella typhimurium): 16 µM (≈ 28.1 µg/mL)
MHC (Erythrocyte): > 128 µM
MIC (Escherichia coli [39]): 4 µM (≈ 7.02 µg/mL)
